Source: patent publication US5358712A, “Radiopharmaceutical agents for the detection of Alzheimer's disease” (Regents of the University of Minnesota, priority 1993, dated 1994)

What was measured:
vesamicol receptor [1] = test: Blocking experiments: inhibition of radiotracer accumulation in the rat by coadministered compound; assay type: in vivo, rat (male Wistar); details: rat
How it was run: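 Male Wistar rats (n=3/group) got iv radiotracer, alone or coadministered with blocker (e.g. (+)/(−)-HBrPP·HCl 1.3 μmol/kg, vesamicol·HCl 1.1 μmol/kg, or 0.31–0.53 mg/kg in other series). Blood and tissues taken 60 min post-injection to assess radiotracer accumulation.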

vesamicol receptor [2] = test: Ligand displacement studies in vivo; design: species or system rat (male Wistar); details: rat, vesamicol iv 30 minutes after radiotracer
Method: To determine if vesamicol could displace bound [^125 I]5 in vivo, a blocking dose of vesamicol was injected intravenously 30 minutes following the administration of (-)-[^125 I]5.
Two groups of male Wistar rats (n=3) were used in this study. Each animal initially received, while under anesthesia, an iv dose of (-)-5, (9.5 μCi) in 0.1 ml of 50% aqueous ethanol. After 30 min. the control group received an iv dose of 50% aqueous ethanol (0.1 ml) while the second group received an iv dose of (dl)-vesamicol hydrochloride (1.1 μmol/kg) in 0.1 ml of 50% aqueous ethanol. All animals were sacrificed, as described above, at one hour following radiotracer injection. Data was analyzed as described above.

[3] = test system: vesicular acetylcholine storage; details: cited from earlier work
[4] = test system: rodents and other laboratory animals; details: cited from earlier work
vesamicol receptor [5] = details: cited from earlier work
[6] = rat
Method: (§1) Four groups of male Wistar rats (with four animals per group) weighing 200-350 g were used in these experiments. Each animal received, while under ether anesthesia, an intravenous injection of the radiotracer (10-20 μCi) dissolved in 0.1 ml of 50% aqueous ethanol. At 5, 30, and 60 and 180 min. post-injection, blood was collected from the anesthetized animals by cardiac puncture, and the animal was immediately sacrificed by cardiectomy. The organs and tissues of interest were harvested, transferred to preweighed tubes and counted in a Beckman gamma counter. The tubes were subsequently reweighed to give the weight of the corresponding tissues. Preweighed tubes containing ^1 -ml samples of a 1:100 dilution of the injection dose were also counted and used as reference for calculating the tissue accumulation of radioactivity. The accumulation of radiotracer was expressed as a percentage of injected dose per gram of tissue.

[7] = Tissue distribution (biodistribution) of radioiodinated compound in the rat; details: rat
Method: as §1

[8] = iv, 60 min, + (dl)-vesamicol HCl 0.3 (Table 3) or 0.31 mg/kg, 60 min
[9] = iv, 60 min, radiotracer only (control)

## O[C@@H]1CCCC[C@H]1N1CCC(c2ccccc2)CC1 (relative stereo) [vesamicol, trans-2-(4-phenylpiperidino)cyclohexanol]
Vesamicol receptor [1]; vesamicol 1.1 μmol/kg, (+)-7 and (-)-7 1.3 μmol/kg, coadministered
  blocking of the accumulation of [^125 I]5 in vivo, relative potency: equipotent
Vesamicol receptor [2]
  displacement of bound (-)-[^125 I]5 radioactivity from brain or heart: fails to displace
Vesamicol receptor [2]; listed as (dl)-vesamicol
  displacement of bound (-)-[^125 I]5 radioactivity from brain or heart: can not readily displace
[3]
  inhibition of ACh uptake into cholinergic synaptic vesicles and of quantal release: inhibit both the uptake of ACh into cholinergic synaptic vesicles and quantal release
[4]
  respiratory paralysis and death: induces respiratory paralysis and death
Vesamicol receptor [5]
  dissociation from the receptor: dissociate too quickly
  reversibility of binding to the vesamicol receptor: binds reversibly

## OC(CN1CCC(c2ccccc2)CC1)c1ccc([125I])cc1 (single isomer, unassigned; (+)) [(+)-[^125 l]13] [1-(4-Iodophenyl)-2-(4-phenylpiperidinyl)ethanol]
Vesamicol receptor [1]; [8]
  Brain: Blood Ratio: 7.02
  Heart: Blood Ratio: 2.48
  radioactivity in blood: 0.03 % dose/g of tissue
Vesamicol receptor [1]; [9]
  Brain: Blood Ratio: 17.86
  Heart: Blood Ratio: 4.41
[6]
  efflux from the brain: much slower
[7]; 3 hours post-injection vs initial, listed as (+)[^123 I]13
  decrease of concentration in the brain: 35%
[7]; initial, listed as (+)-[^125 I]13
  initial accumulation in the rat brain: 2.75 % of the injected dose
[7]; iv, 5 min
  Brain: Blood Ratio: 14.8
  Heart: Blood Ratio: 13.8
[7]; iv, 60 min
  Brain: Blood Ratio: 41.7
  Heart: Blood Ratio: 8.2
  radioactivity in lung: 1.77 % dose/g
[7]; iv, 180 min
  Brain: Blood Ratio: 37.4
  Heart: Blood Ratio: 5.7
  radioactivity in blood: 0.02 % dose/g
  radioactivity in brain: 0.93 % dose/g
  radioactivity in heart: 0.14 % dose/g
  radioactivity in kidney: 1.53 % dose/g
  radioactivity in liver: 1.97 % dose/g
  radioactivity in lung: 0.62 % dose/g
  radioactivity in muscle: 0.13 % dose/g
  radioactivity in spleen: 0.77 % dose/g
